Patent publication US10344049B2, “Substituted steroids for the treatment of cancer” (AQUAVAN TECHNOLOGY CO., LTD., priority 2017, dated 2019)
Like-named read-outs stand apart in the source and are kept apart here.

What was measured:
Format in all cases: cell-based
[1] = tested on: human leukemia cells U937; assay: Cell viability test (Resazurin), U937 cells
Description: (§1) Cell viability was determined with Resazurin (at a final concentration of 25 μg/mL).

[2] = tested on: African green monkey kidney cells Vero; assay: Cell viability test (Resazurin), Vero cells
Description: as §1

[3] = tested on: human Glioblastoma cells U87-MG; assay: Cell viability test (Resazurin), U87-MG cells
Description: as §1

[4] = tested on: human breast cancer cells MDA-MB-231; assay: Cell viability test (Resazurin), MDA-MB-231 cells
Description: as §1

[5] = tested on: human colorectal cancer cells SW-480; assay: Cell viability test (Resazurin), SW480 cells
Description: as §1

[6] = tested on: human lung cancer cells A549; assay: Cell viability test (Resazurin), A549 cells
Description: as §1

[7] = tested on: human liver cancer cells Mahlavu; assay: Cell viability test (Resazurin), Mahlavu cells
Description: as §1

[8] = tested on: human breast cancer cells MDA-MB-468; assay: Cell viability test (Resazurin), MDA-MB-468 cells
Description: as §1

[9] = Homo sapiens, U-937, U937 cells, grade of the IC50 of Table 2, read-out: evaluation of ability to inhibit cell growth activity (IC50)
[10] = U937 cells, 48 hours, 0.1% FCS, Resazurin, read-out: inhibitory concentrations of cell growth activity IC50
[11] = Chlorocebus sabaeus, Vero, 48 h, 0.1% FCS, Resazurin, read-out: inhibitory concentrations of cell growth activity IC50
[12] = Chlorocebus sabaeus, Vero, grade of the IC50 of Table 2, read-out: evaluation of ability to inhibit cell growth activity (IC50)
[13] = Homo sapiens, U-87 MG, 48 h, 0.1% FCS, Resazurin, read-out: inhibitory concentrations of cell growth activity IC50
[14] = Homo sapiens, U-87 MG, grade of the IC50 of Table 2, read-out: evaluation of ability to inhibit cell growth activity (IC50)
[15] = Homo sapiens, MDA-MB-231, 48 h, MDA-MB-231 cells, 48 hours, 0.1% FCS, Resazurin, read-out: inhibitory concentrations of cell growth activity IC50
[16] = Homo sapiens, MDA-MB-231, MDA-MB-231 cells, grade of the IC50 of Table 2, read-out: evaluation of ability to inhibit cell growth activity (IC50)
[17] = Homo sapiens, SW480, 48 h, SW480 cells, 48 hours, 0.1% FCS, Resazurin, read-out: inhibitory concentrations of cell growth activity IC50
[18] = Homo sapiens, SW480, SW480 cells, grade of the IC50 of Table 2, read-out: evaluation of ability to inhibit cell growth activity (IC50)
[19] = Homo sapiens, A549, 48 h, A549 cells, 48 hours, 0.1% FCS, Resazurin, read-out: inhibitory concentrations of cell growth activity IC50
[20] = Homo sapiens, A549, A549 cells, grade of the IC50 of Table 2, read-out: evaluation of ability to inhibit cell growth activity (IC50)
[21] = Homo sapiens, Mahlavu, 48 h, 0.1% FCS, Resazurin, read-out: inhibitory concentrations of cell growth activity IC50
[22] = Homo sapiens, Mahlavu, grade of the IC50 of Table 2, read-out: evaluation of ability to inhibit cell growth activity (IC50)
[23] = MDA-MB-468 cells, 48 hours, 0.1% FCS, Resazurin, read-out: inhibitory concentrations of cell growth activity IC50
[24] = MDA-MB-468 cells, grade of the IC50 of Table 2, read-out: evaluation of ability to inhibit cell growth activity (IC50)
[25] = U937 cells, grade of the IC50 of Table 2, read-out: evaluation of ability to inhibit cell growth activity (IC50)
[26] = U937 cells, grade of the IC50 of Table 2
[27] = 48 hours, 0.1% FCS, Resazurin, read-out: inhibitory concentrations of cell growth activity IC50
[28] = grade of the IC50 of Table 2, read-out: evaluation of ability to inhibit cell growth activity (IC50)
[29] = MDA-MB-231 cells, 48 hours, 0.1% FCS, Resazurin, read-out: inhibitory concentrations of cell growth activity IC50
[30] = MDA-MB-231 cells, grade of the IC50 of Table 2, read-out: evaluation of ability to inhibit cell growth activity (IC50)
[31] = SW480 cells, 48 hours, 0.1% FCS, Resazurin, read-out: inhibitory concentrations of cell growth activity IC50
[32] = SW480 cells, grade of the IC50 of Table 2, read-out: evaluation of ability to inhibit cell growth activity (IC50)
[33] = A549 cells, 48 hours, 0.1% FCS, Resazurin, read-out: inhibitory concentrations of cell growth activity IC50
[34] = A549 cells, grade of the IC50 of Table 2, read-out: evaluation of ability to inhibit cell growth activity (IC50)

| Compound | IC50 [1, 9] [µM] | IC50 [1, 10] [µM] | IC50 [2, 11] [µM] | IC50 [2, 12] [µM] | IC50 [3, 13] [µM] | IC50 [3, 14] [µM] | IC50 [4, 15] [µM] | IC50 [5, 17] [µM] | IC50 [6, 20] [µM] | IC50 [7, 21] [µM] | IC50 [7, 22] [µM] | IC50 [8, 23] [µM] | IC50 [8, 24] [µM] | IC50 [2, 27] [µM] | IC50 [3, 27] [µM] | IC50 [3, 28] [µM] | IC50 [4, 29] [µM] | IC50 [4, 30] [µM] | IC50 [5, 32] [µM] | IC50 [6, 33] [µM] | other results |
| --- | --- | --- | --- | --- | --- | --- | --- | --- | --- | --- | --- | --- | --- | --- | --- | --- | --- | --- | --- | --- | --- |
| CO[C@@H]1O[C@]23C=C[C@@H]4[C@@]1(CC[C@]1(C)[C@@H]([C@H](C)C/C=C/C(C)(C)OC)CC[C@@]41C)[C@@H]2CC[C@H](O)C3(C)C [Compound 15] | < 8 | 4.28 | > 256 | > 256 | > 256 | > 256 | > 256 | > 256 | > 256 | > 256 | > 256 | > 256 | > 256 | – | – | – | – | – | – | – | IC50 [4, 16]: > 256 µM; IC50 [5, 18]: > 256 µM; IC50 [6, 19]: > 256 µM |
| COC1O[C@]23C=C[C@@H]4[C@@]1(CC[C@]1(C)[C@@H]([C@H](C)C[C@H](C=C(C)C)OC)CC[C@@]41C)[C@@H]2CC[C@H](O)C3(C)C (stereo partly drawn) [Compound 16] | – | 97.9 | > 256 | > 256 | > 256 | > 256 | > 256 | > 256 | > 256 | > 256 | > 256 | – | – | – | – | – | – | – | – | – | IC50 [1, 25]: 64 to 256 µM; IC50 [4, 16]: > 256 µM; IC50 [5, 18]: > 256 µM; IC50 [6, 19]: > 256 µM; IC50 ([8]; Homo sapiens, MDA-MB-468, 48 h, MDA-MB-468 cells, 48 hours, 0.1% FCS, Resazurin, read-out: inhibitory concentrations of cell growth activity IC50): > 256 µM; IC50 ([8]; Homo sapiens, MDA-MB-468, MDA-MB-468 cells, grade of the IC50 of Table 2, read-out: evaluation of ability to inhibit cell growth activity (IC50)): > 256 µM |
| COC1O[C@]23C=C[C@@H]4[C@@]1(CC[C@]1(C)[C@@H]([C@H](C)C/C=C/C(C)(C)OC)CC[C@@]41C)[C@@H]2CC[C@H](O)C3(C)C (stereo partly drawn) [Compound 17] | – | 12.2 | – | – | – | – | – | – | – | – | – | 9.4 | – | > 256 | > 256 | > 256 | > 256 | > 256 | > 256 | > 256 | evaluation of ability to inhibit cell growth activity (IC50) [1, 26]: ◯; IC50 [2, 28]: > 256 µM; IC50 [5, 31]: > 256 µM; IC50 [6, 34]: > 256 µM; IC50 [7, 27]: > 256 µM; IC50 [7, 28]: > 256 µM; evaluation of ability to inhibit cell growth activity (IC50) ([8]; MDA-MB-468 cells, grade of the IC50 of Table 2): ◯ |
| CO[C@H]1O[C@]23C=C[C@@H]4[C@@]1(CC[C@]1(C)[C@@H]([C@H](C)C[C@H](C=C(C)C)OC)CC[C@@]41C)[C@@H]2CC[C@H](O)C3(C)C [Compound 18] | – | > 256 | – | – | – | – | – | – | – | – | – | > 256 | > 256 | > 256 | > 256 | > 256 | > 256 | > 256 | > 256 | > 256 | IC50 [1, 25]: > 256 µM; IC50 [2, 28]: > 256 µM; IC50 [5, 31]: > 256 µM; IC50 [6, 34]: > 256 µM; IC50 [7, 27]: > 256 µM; IC50 [7, 28]: > 256 µM |
| COC1O[C@]23C=C[C@@H]4[C@@]1(CC[C@]1(C)[C@@H]([C@H](C)C/C=C/C(C)(C)O)CC[C@@]41C)[C@@H]2CC[C@H](O)C3(C)C (stereo partly drawn) [Compound 19] | 8 to 16 | 11.9 | – | 16 to 64 | – | – | – | 16.6 | 16 to 64 | 20.7 | 16 to 64 | 24.4 | 16 to 64 | 36.1 | 25 | 16 to 64 | 22.6 | 16 to 64 | 16 to 64 | 45.6 | evaluation of ability to inhibit cell growth activity (IC50) [1, 26]: ◯ |
